Activity calls are given as the source filed them. No cut-off for these calls is given here.
What was measured:
[1] = test system: Protein farnesyltransferase subunit beta (Homo sapiens), P49356 [W102T,Y154T,Y205T]; assay: Binding affinity at FTase W102T/Y154T/Y205T mutant assessed as prenylation of dansyl-labeled GCVLS by fluorescence based assay
[2] = test system: Protein farnesyltransferase subunit beta (Homo sapiens), P49356 [W102T,Y154T,Y205T]; assay: Binding affinity to FTase W102T/Y154T/Y205T mutant assessed as prenylation of dansyl-labeled GCVLL by fluorescence based assay
[3] = test system: Geranylgeranyl transferase type-1 subunit beta (Homo sapiens), P53609 [F52Y,F53Y,Y126T]; assay: Binding affinity to GGTase-1 F52Y/F53Y/Y126T mutant assessed as prenylation of dansyl-labeled GCVLS by fluorescence based assay
[4] = test system: Geranylgeranyl transferase type-1 subunit beta (Homo sapiens), P53609 [F52Y,F53Y,Y126T]; assay: Binding affinity to GGTase-1 F52Y/F53Y/Y126T mutant assessed as prenylation of dansyl-labeled GCVLL by fluorescence based assay
COS-7 [5] = assay: Inhibition of RabGGTase in african green monkey COS7 cells assessed as Rab prenylation up to 50 uM by Western blot analysis; type: cell-based
COS-7 [6] = assay: Inhibition of isoprenoid biosynthesis in african green monkey COS7 assessed as unprenylated Rab protein level by Western blot analysis; type: functional, cell-based; settings: Chlorocebus aethiops
COS-7 [7] = assay: Inhibition of RabGGTase in african green monkey COS7 cells assessed as unprenylated Rab01A level by MudPIT analysis; type: cell-based
COS-7 [8] = assay: Inhibition of RabGGTase in african green monkey COS7 cells assessed as unprenylated Rab01B level by MudPIT analysis; type: cell-based
COS-7 [9] = assay: Inhibition of RabGGTase in african green monkey COS7 cells assessed as unprenylated Rab02A level by MudPIT analysis; type: cell-based
COS-7 [10] = assay: Inhibition of RabGGTase in african green monkey COS7 cells assessed as unprenylated Rab02B level by MudPIT analysis; type: cell-based
COS-7 [11] = assay: Inhibition of RabGGTase in african green monkey COS7 cells assessed as unprenylated Rab03A level by MudPIT analysis; type: cell-based
COS-7 [12] = assay: Inhibition of RabGGTase in african green monkey COS7 cells assessed as unprenylated Rab03B level by MudPIT analysis; type: cell-based
COS-7 [13] = assay: Inhibition of RabGGTase in african green monkey COS7 cells assessed as unprenylated Rab03C level by MudPIT analysis; type: cell-based
COS-7 [14] = assay: Inhibition of RabGGTase in african green monkey COS7 cells assessed as unprenylated Rab03D level by MudPIT analysis; type: cell-based
COS-7 [15] = assay: Inhibition of RabGGTase in african green monkey COS7 cells assessed as unprenylated Rab04A level by MudPIT analysis; type: cell-based
COS-7 [16] = assay: Inhibition of RabGGTase in african green monkey COS7 cells assessed as unprenylated Rab04B level by MudPIT analysis; type: cell-based
COS-7 [17] = assay: Inhibition of RabGGTase in african green monkey COS7 cells assessed as unprenylated Rab05A level by MudPIT analysis; type: cell-based
COS-7 [18] = assay: Inhibition of RabGGTase in african green monkey COS7 cells assessed as unprenylated Rab05B level by MudPIT analysis; type: cell-based
COS-7 [19] = assay: Inhibition of RabGGTase in african green monkey COS7 cells assessed as unprenylated Rab05C level by MudPIT analysis; type: cell-based
COS-7 [20] = assay: Inhibition of RabGGTase in african green monkey COS7 cells assessed as unprenylated Rab06A level by MudPIT analysis; type: cell-based
COS-7 [21] = assay: Inhibition of RabGGTase in african green monkey COS7 cells assessed as unprenylated Rab06B level by MudPIT analysis; type: cell-based
COS-7 [22] = assay: Inhibition of RabGGTase in african green monkey COS7 cells assessed as unprenylated Rab06C level by MudPIT analysis; type: cell-based
COS-7 [23] = assay: Inhibition of RabGGTase in african green monkey COS7 cells assessed as unprenylated Rab07a level by MudPIT analysis; type: cell-based
COS-7 [24] = assay: Inhibition of RabGGTase in african green monkey COS7 cells assessed as unprenylated Rab08A level by MudPIT analysis; type: cell-based
COS-7 [25] = assay: Inhibition of RabGGTase in african green monkey COS7 cells assessed as unprenylated Rab08B level by MudPIT analysis; type: cell-based
COS-7 [26] = assay: Inhibition of RabGGTase in african green monkey COS7 cells assessed as unprenylated Rab09A level by MudPIT analysis; type: cell-based
COS-7 [27] = assay: Inhibition of RabGGTase in african green monkey COS7 cells assessed as unprenylated Rab09B level by MudPIT analysis; type: cell-based
COS-7 [28] = assay: Inhibition of RabGGTase in african green monkey COS7 cells assessed as unprenylated Rab10 level by MudPIT analysis; type: cell-based
COS-7 [29] = assay: Inhibition of RabGGTase in african green monkey COS7 cells assessed as unprenylated Rab11A level by MudPIT analysis; type: cell-based
COS-7 [30] = assay: Inhibition of RabGGTase in african green monkey COS7 cells assessed as unprenylated Rab11B level by MudPIT analysis; type: cell-based
COS-7 [31] = assay: Inhibition of RabGGTase in african green monkey COS7 cells assessed as unprenylated Rab13 level by MudPIT analysis; type: cell-based
COS-7 [32] = assay: Inhibition of RabGGTase in african green monkey COS7 cells assessed as unprenylated Rab14 level by MudPIT analysis; type: cell-based
COS-7 [33] = assay: Inhibition of RabGGTase in african green monkey COS7 cells assessed as unprenylated Rab15 level by MudPIT analysis; type: cell-based
COS-7 [34] = assay: Inhibition of RabGGTase in african green monkey COS7 cells assessed as unprenylated Rab18 level by MudPIT analysis; type: cell-based
COS-7 [35] = assay: Inhibition of RabGGTase in african green monkey COS7 cells assessed as unprenylated Rab21 level by MudPIT analysis; type: cell-based
COS-7 [36] = assay: Inhibition of RabGGTase in african green monkey COS7 cells assessed as unprenylated Rab22A level by MudPIT analysis; type: cell-based
COS-7 [37] = assay: Inhibition of RabGGTase in african green monkey COS7 cells assessed as unprenylated Rab27A level by MudPIT analysis; type: cell-based
COS-7 [38] = assay: Inhibition of RabGGTase in african green monkey COS7 cells assessed as unprenylated Rab27B level by MudPIT analysis; type: cell-based
COS-7 [39] = assay: Inhibition of RabGGTase in african green monkey COS7 cells assessed as unprenylated Rab30 level by MudPIT analysis; type: cell-based
COS-7 [40] = assay: Inhibition of RabGGTase in african green monkey COS7 cells assessed as unprenylated Rab31 level by MudPIT analysis; type: cell-based
COS-7 [41] = assay: Inhibition of RabGGTase in african green monkey COS7 cells assessed as unprenylated Rab33B level by MudPIT analysis; type: cell-based
COS-7 [42] = assay: Inhibition of RabGGTase in african green monkey COS7 cells assessed as unprenylated Rab34 level by MudPIT analysis; type: cell-based
COS-7 [43] = assay: Inhibition of RabGGTase in african green monkey COS7 cells assessed as unprenylated Rab35 level by MudPIT analysis; type: cell-based
COS-7 [44] = assay: Inhibition of RabGGTase in african green monkey COS7 cells assessed as unprenylated Rab37 level by MudPIT analysis; type: cell-based
COS-7 [45] = assay: Inhibition of RabGGTase in african green monkey COS7 cells assessed as unprenylated Rab39A level by MudPIT analysis; type: cell-based
COS-7 [46] = assay: Inhibition of RabGGTase in african green monkey COS7 cells assessed as unprenylated Rab41 level by MudPIT analysis; type: cell-based
COS-7 [47] = assay: Inhibition of RabGGTase in african green monkey COS7 cells assessed as unprenylated Rab43 level by MudPIT analysis; type: cell-based
COS-7 [48] = assay: Inhibition of RabGGTase in african green monkey COS7 cells assessed as unprenylated Rab39B level by MudPIT analysis; type: cell-based
COS-7 [49] = assay: Inhibition of GGTase-1 in african green monkey COS7 cells assessed as protein prenylation at >5 uM by Western blot analysis; type: cell-based
COS-7 [50] = assay: Inhibition of FTase in african green monkey COS7 cells assessed as protein prenylation at 15 uM by Western blot analysis; type: cell-based
COS-7 [51] = assay: Inhibition of RabGGTase in african green monkey COS7 cells assessed as Rab prenylation by Western blot analysis; type: cell-based
COS-7 [52] = assay: Inhibition of FTase in african green monkey COS7 cells assessed as protein prenylation at 100 uM by Western blot analysis; type: cell-based

Protein farnesyltransferase subunit beta (Homo sapiens), P49356 [W102T,Y154T,Y205T], sequence (P49356 whole entry W102T/Y154T/Y205T): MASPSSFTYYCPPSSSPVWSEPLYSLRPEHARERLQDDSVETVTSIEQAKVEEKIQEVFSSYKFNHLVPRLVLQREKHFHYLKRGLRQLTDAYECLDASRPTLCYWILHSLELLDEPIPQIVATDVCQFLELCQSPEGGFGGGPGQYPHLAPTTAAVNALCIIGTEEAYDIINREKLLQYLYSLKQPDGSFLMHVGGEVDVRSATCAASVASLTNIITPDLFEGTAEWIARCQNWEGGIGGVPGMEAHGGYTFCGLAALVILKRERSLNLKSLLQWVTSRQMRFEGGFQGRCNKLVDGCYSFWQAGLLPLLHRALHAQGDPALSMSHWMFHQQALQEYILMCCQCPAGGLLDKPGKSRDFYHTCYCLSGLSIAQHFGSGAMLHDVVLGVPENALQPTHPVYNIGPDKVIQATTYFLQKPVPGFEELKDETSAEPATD
Geranylgeranyl transferase type-1 subunit beta (Homo sapiens), P53609 [F52Y,F53Y,Y126T], sequence (P53609 whole entry F52Y/F53Y/Y126T): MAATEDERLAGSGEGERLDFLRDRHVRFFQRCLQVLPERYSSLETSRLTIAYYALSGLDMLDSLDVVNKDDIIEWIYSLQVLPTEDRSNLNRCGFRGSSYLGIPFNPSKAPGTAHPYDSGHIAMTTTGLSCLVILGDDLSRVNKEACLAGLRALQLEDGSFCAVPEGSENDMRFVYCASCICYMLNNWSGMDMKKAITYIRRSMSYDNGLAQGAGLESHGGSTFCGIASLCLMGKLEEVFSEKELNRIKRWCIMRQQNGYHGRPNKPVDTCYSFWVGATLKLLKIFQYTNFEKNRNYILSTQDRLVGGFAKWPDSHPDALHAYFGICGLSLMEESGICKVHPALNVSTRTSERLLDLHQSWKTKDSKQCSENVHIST

Question: CC(C)=CCC/C(C)=C/CC/C(C)=C/CC/C(C)=C/COP(=O)(O)OP(=O)(O)O was tested. Which Activity [1] did it give?
Answer: inactive

Question: And the Activity [2]?
Answer: inactive

Question: What about the Activity [3] of the same compound?
Answer: inactive

Question: And the Activity [4]?
Answer: inactive

Question: For CCCCCCS[C@H]1[C@@H](C(=O)O)[C@H](c2ccc(Br)cc2)N(S(=O)(=O)c2ccc(C)cc2)[C@@H]1CCCCCC, which inhibition (COS-7 [5]) is on record?
Answer: inactive

Question: How did the inhibition (COS-7 [6]) turn out when CC[C@H](C)C(=O)O[C@H]1CCC=C2C=C[C@H](C)[C@H](CC[C@@H]3C[C@@H](O)CC(=O)O3)[C@H]21 was run?
Answer: Active

Question: And the Activity (COS-7 [7])?
Answer: 1.7 pmol

Question: And the Activity (COS-7 [8])?
Answer: 1.8 pmol

Question: What about the Activity (COS-7 [9]) of the same compound?
Answer: 1.2 pmol

Question: What about the Activity (COS-7 [10]) of the same compound?
Answer: 0.5 pmol

Question: And the Activity (COS-7 [11])?
Answer: 0.7 pmol

Question: And the Activity (COS-7 [12])?
Answer: 0.4 pmol

Question: What about the Activity (COS-7 [13]) of the same compound?
Answer: 0.4 pmol

Question: And the Activity (COS-7 [14])?
Answer: 1.1 pmol

Question: And the Activity (COS-7 [15])?
Answer: 0.2 pmol

Question: And the Activity (COS-7 [16])?
Answer: 0.2 pmol

Question: And the Activity (COS-7 [17])?
Answer: 1.3 pmol

Question: And the Activity (COS-7 [18])?
Answer: 1.1 pmol

Question: What about the Activity (COS-7 [19]) of the same compound?
Answer: 1.6 pmol

Question: What about the Activity (COS-7 [20]) of the same compound?
Answer: 0.8 pmol

Question: And the Activity (COS-7 [21])?
Answer: 0.6 pmol

Question: And the Activity (COS-7 [22])?
Answer: 0.2 pmol

Question: What about the Activity (COS-7 [23]) of the same compound?
Answer: 1.7 pmol

Question: And the Activity (COS-7 [24])?
Answer: 0.6 pmol

Question: What about the Activity (COS-7 [25]) of the same compound?
Answer: 0.4 pmol

Question: What about the Activity (COS-7 [26]) of the same compound?
Answer: 0.8 pmol

Question: What about the Activity (COS-7 [27]) of the same compound?
Answer: 0.3 pmol

Question: What about the Activity (COS-7 [28]) of the same compound?
Answer: 1 pmol

Question: And the Activity (COS-7 [29])?
Answer: 1.2 pmol

Question: What about the Activity (COS-7 [30]) of the same compound?
Answer: 1.5 pmol

Question: What about the Activity (COS-7 [31]) of the same compound?
Answer: 0.4 pmol

Question: And the Activity (COS-7 [32])?
Answer: 1.5 pmol

Question: What about the Activity (COS-7 [33]) of the same compound?
Answer: 0.1 pmol

Question: And the Activity (COS-7 [34])?
Answer: 0.7 pmol

Question: What about the Activity (COS-7 [35]) of the same compound?
Answer: 0.6 pmol

Question: And the Activity (COS-7 [36])?
Answer: 0.8 pmol

Question: And the Activity (COS-7 [37])?
Answer: 0.1 pmol

Question: What about the Activity (COS-7 [38]) of the same compound?
Answer: 0.1 pmol

Question: What about the Activity (COS-7 [39]) of the same compound?
Answer: 0.2 pmol

Question: What about the Activity (COS-7 [40]) of the same compound?
Answer: 0.3 pmol

Question: And the Activity (COS-7 [41])?
Answer: 0.2 pmol

Question: And the Activity (COS-7 [42])?
Answer: 0.1 pmol

Question: What about the Activity (COS-7 [43]) of the same compound?
Answer: 0.6 pmol

Question: And the Activity (COS-7 [44])?
Answer: 0.2 pmol

Question: What about the Activity (COS-7 [45]) of the same compound?
Answer: 0.2 pmol

Question: And the Activity (COS-7 [46])?
Answer: 0.2 pmol

Question: What about the Activity (COS-7 [47]) of the same compound?
Answer: 0.2 pmol

Question: What about the Activity (COS-7 [48]) of the same compound?
Answer: 0.2 pmol

Question: Which inhibition (COS-7 [49]) does the source give for COC(=O)[C@H](CC(C)C)NC(=O)c1ccc(NC[C@@H](N)CS)cc1-c1cccc2ccccc12 here?
Answer: Active

Question: And the inhibition (COS-7 [50])?
Answer: Active

Question: What about the inhibition (COS-7 [51]) of the same compound?
Answer: inactive

Question: Which inhibition (COS-7 [52]) does the source give for CSCC[C@H](NC(=O)[C@H](Cc1ccccc1)NC[C@@H](NC[C@@H](N)CS)C(C)C)C(=O)O here?
Answer: inactive

Question: For CCC[C@@H]1[C@@H](Sc2ccc(OC)cc2)[C@@H](C(=O)O)[C@H](c2ccc(Br)cc2)N1S(=O)(=O)c1ccc(C)cc1, which inhibition (COS-7 [5]) is on record?
Answer: inactive

Question: CCCCCCS[C@H]1[C@@H](C(=O)O)[C@H](c2ccc(Br)cc2)N(S(=O)(=O)c2ccc(C)cc2)[C@@H]1CCC was tested. Which inhibition (COS-7 [5]) did it give?
Answer: inactive
